pKd: −log10 of the molar value. Like-named read-outs stand apart in the source and are kept apart here.
Key:
wild-type RT of HIV-1 = wild-type RT of HIV-1 (Human immunodeficiency virus type 1 group M subtype B, UniProt P04585); assay: biochemical; format: biochemical; settings: wild-type RT; for Selectivity = (kpol/Kd) natural nucleotide/(kpol/Kd) nucleotide analogue (discrimination): versus dATP
K65R mutant RT of HIV-1 [1] = molecular target: K65R mutant RT of HIV-1 (Human immunodeficiency virus type 1 group M subtype B, UniProt P04585, K652R); assay: biochemical; format: biochemical; settings: K65R mutant RT; for Selectivity = (kpol/Kd) natural nucleotide/(kpol/Kd) nucleotide analogue: versus dATP
K65R mutant RT of HIV-1 [2] = assay: biochemical; format: biochemical
HBV [3] = assay: Anti-HBV test in infected HepAD38 cells (intracellular viral DNA by Q-PCR); format: cell-based
Experimental: These are hepatoma cells that have been stably transfected with a cDNA copy of the pregenomic RNA of wild-type virus. Withdrawal of tetracycline from the culture medium results in the initiation of viral replication. This offers the advantage, in contrast to the Hep G2.2.15 cell lines commonly used, that there is no, or very limited background viral DNA synthesis. Cells were cultured at 37° C. in a humidified 5% CO2/air atmosphere in seeding medium, DMEM/Ham's F12 (50/50) supplemented with 10% (v/v) heat-inactivated fetal calf serum, 100 IU/ml penicillin, 50 μg/ml streptomycin, 100 Ξg/ml kanamycin, 400 μg/ml G418, and 0.3 μg/ml tetracycline. […] After 2-3 days the cultures were induced for viral production by washing with prewarmed PBS and were fed with […] assay medium (seeding medium without tetracycline and G418) with or without the antiviral compounds. Medium was changed after 3 days. The antiviral effect was quantified by measuring levels of intracellular viral DNA at day 6 post-induction, by a real time quantitative PCR (Q-PCR) method. Total cellular DNA was extracted from the cells by means of a commercial kit. […] The reaction was analyzed using a SDS 7000. A plasmid containing the full length insert of the HBV genome was used to prepare the standard curve. The amount of viral DNA produced in treated cultures was expressed as a percentage of the mock treated samples. […] The cytostatic effect of the various compounds was assessed employing the parent hepatoma cell line HepG2. The effect of the compounds on exponentially growing HepG2 cells was evaluated by means of the MTS method. Briefly, cells were seeded at a density of 3000/well (96 well plate) and were allowed to proliferate for 3 days in the absence or presence of compounds after which the optical density was measured with a 96-well plate reader and cell density was determined.

[4] = Cytostatic effect on parent hepatoma cell line HepG2 (MTS method); settings: human, exponentially growing HepG2 cells
HIV-1-LAI = assay: Anti-HIV test in CMSP cultures infected by HIV-1-LAI (RT activity in supernatants); format: cell-based
[5] = Cytotoxicity by MTT test in cultures of uninfected CMSP; settings: human
HBV [6] = assay: Anti-HBV test in infected Huh7 cells; format: cell-based; settings: Hepatitis B virus, Huh-7, read-out: EC50 (μM) HBV

Row | SMILES | kpol (wild-type RT of HIV-1) [s⁻¹] | kpol/Kd (wild-type RT of HIV-1) | Selectivity = (kpol/Kd) natural nucleotide/(kpol/Kd) nucleotide analogue (discrimination) (wild-type RT of HIV-1) | pKd (wild-type RT of HIV-1; read-out: Kd) | pKd (K65R mutant RT of HIV-1 [1]) | kpol (K65R mutant RT of HIV-1 [1]) [s⁻¹] | kpol/Kd (K65R mutant RT of HIV-1 [1]) | Selectivity = (kpol/Kd) natural nucleotide/(kpol/Kd) nucleotide analogue (K65R mutant RT of HIV-1 [1]) | reduction in the incorporation velocity of the nucleotide (factor) (K65R mutant RT of HIV-1 [2]) | SI selectivity index (TC50/EC50) (HBV [3]; HBV, HepAD38 cells) | EC50 (HBV [3]; Hepatitis B virus, 144 h, infected HepAD38 cells, 50% reduction of viral DNA, day 6 post-induction) [µM] | CC50 at 3 days [4] [µM] | IT (selectivity index, TC50/EC50) (HIV-1-LAI; HIV-1 (LAI), CMSP) | EC50 (HIV-1-LAI; Human immunodeficiency virus 1, 168 h, read-out: EC50 (μM) HIV-1 (LAI)) [µM] | CC50 at 7 days [5] [µM] | EC50 (HBV [6]) [µM] | Selectivity = (kpol/Kd) natural nucleotide/(kpol/Kd) nucleotide analogue (discrimination) (wild-type RT of HIV-1; listed as PMPADP) | pKd (wild-type RT of HIV-1; unit inferred, read-out: affinities of the RT for the analogues (Kd))
1 | Nc1ncnc2c1ncn2CCOCP(=O)(O)OP(=O)(O)OP(=O)(O)O [PMEApp, PMEA diphosphate] | 6.8 | 0.86 | 7.8 | 5.10 | 5.11 | 0.75 | 0.1 | 16.9 | 9 |  |  |  |  |  |  |  |  | 
2 | CC(Cn1cnc2c(N)ncnc21)OCP(=O)(O)O (stereo not drawn) [PMPA, 9-(2-(phosphonomethoxy)propyl)adenine] |  |  |  |  |  |  |  |  |  | >12 | 2.88 | > 35 | >77 | 1.3 | > 100 | 4 |  | 
3 | C[C@@H](Cn1cnc2c(N)ncnc21)OCP(=O)(O)OP(=O)(O)OP(=O)(O)O [PMPApp, PMPA diphosphate] | 7 | 0.3 | 22.3 | 4.64 | 4.74 | 0.32 | 0.017 | 99.4 | 22 |  |  |  |  |  |  |  | 22 | 
4 | Nc1ncnc2c1ncn2[C@H]1C[C@H](O)[C@@H](COP(=O)(O)OP(=O)(O)OP(=O)(O)O)O1 [dATP] | 50.16 | 6.71 |  | 5.13 | 5.16 | 11.63 | 1.69 |  |  |  |  |  |  |  |  |  |  | 5.12

— patent publication US8884011B2, “Nucleotide analogues as precursor molecules for antivirals” (Centre National de la Recherche Scientifique-CNRS, priority 2006, dated 2014)
